The target of one data set is human PDE10A2 (Homo sapiens (Human), UniProt Q9Y233). Put plainly: PDE10 fluorescence polarization (IMAP FP) inhibition assay. Format: biochemical. As for the experimental part:
The activity of the compounds in accordance with the present invention as PDE10 inhibitors may be readily determined without undue experimentation using a fluorescence polarization (FP) methodology that is well known in the art (Huang, W., et al., J. Biomol Screen, 2002, 7: 215).
In a typical experiment the PDE10 inhibitory activity of the compounds of the present invention was determined in accordance with the following experimental method. PDE10A2 was amplified from human fetal brain cDNA (Clontech, Mountain View, Calif.) using a forward primer corresponding to nucleotides 56-77 of human PDE10A2 (Accession No. AF127480, Genbank Identifier 4894716), containing a Kozak consensus sequence, and a reverse primer corresponding to nucleotides 2406-2413 of human PDE10A2 (Accession No. AF127480, Genbank Identifier 4894716). Amplification with Easy-A polymerase (Stratagene, La Jolla, Calif.) was 95° C. for 2 minutes followed by thirty three cycles of 95° C. for 40 seconds, 55° C. for 30 seconds, and 72° C. for 2 minutes 48 seconds. Final extension was 72° C. for 7 minutes. The PCR product was TA cloned into pcDNA3.2-TOPO (Invitrogen, Carlsbad, Calif.) according to standard protocol. AD293 cells with 70-80% confluency were transiently transfected with human PDE10A2/pcDNA3.2-TOPO using Lipofectamine 2000 according to manufacturer specifications (Invitrogen, Carlsbad, Calif.). Cells were harvested 48 hours post-transfection and lysed by sonication (setting 3, 10×5 sec pulses) in a buffer containing 20 mM HEPES, 1 mM EDTA and protease inhibitor cocktail (Roche). Lysate was collected by centrifugation at 75,000×g for 20 minutes. Supernatant containing the cytoplasmic fraction was used for evaluation of PDE10A2 activity. The fluorescence polarization assay for cyclic nucleotide phosphodiesterases was performed using an IMAP® FP kit supplied by Molecular Devices, Sunnyvale, Calif. (product # R8139). IMAP® technology has been applied previously to phosphodiesterase assays (Huang, W., et al., J. Biomol Screen, 2002, 7: 215). Assays were performed at room temperature in 384-well microtiter plates with an incubation volume of 20.2 μL. Solutions of test compounds were prepared in DMSO and serially diluted with DMSO to yield 8 μL of each of 10 solutions differing by 3-fold in concentration, at 32 serial dilutions per plate. […] 0% of inhibition is determined by using DMSO (1% final concentrations).
A Labcyte Echo 555 (Labcyte, Sunnyvale, Calif.) is used to dispense 200 nL from each well of the titration plate to the 384 well assay plate. A solution of enzyme (1/1600 dilution from aliquots; sufficient to produce 20% substrate conversion) and a separate solution of FAM-labeled cAMP PDE from Molecular Devices (product # R7506), at a final concentration of 50 nM are made in the assay buffer (10 mM Tris HCl, pH 7.2, 10 mM MgCl2, 0.05% NaN3 0.01% Tween-20, and 1 mM DTT). The enzyme and the substrate are then added to the assay plates in two consecutive additions of 10 μL, and then shaken to mix. The reaction is allowed to proceed at room temperature for 30 minutes. […] The enzymatic reaction is stopped by addition of 60 μL of the binding solution to each well of the assay plates and the plates are sealed and shaken for 10 seconds. The plate was incubated at room temperature for at least one hour prior to determining the fluorescence polarization (FP). The parallel and perpendicular fluorescence of each well of the plate was measured using a Perkin Elmer EnVision™ plate reader (Waltham, Mass.).
Fluorescence polarization (mP) was calculated from the parallel (S) and perpendicular (P) fluorescence of each sample well and the analogous values for the median control well, containing only substrate (So and Po), using the following equation: Polarization (mP)=1000*(S/So−P/Po)/(S/So+P/Po).
Dose-inhibition profiles for each compound were characterized by fitting the mP data to a four-parameter equation given below.

The target in the next data set is CYP2C9 (Homo sapiens (Human), UniProt P11712). The data set is described as follows: reversible inhibition of CYP2C9. Format: in vitro ADME.
CYP2C9, sequence (P11712 whole entry): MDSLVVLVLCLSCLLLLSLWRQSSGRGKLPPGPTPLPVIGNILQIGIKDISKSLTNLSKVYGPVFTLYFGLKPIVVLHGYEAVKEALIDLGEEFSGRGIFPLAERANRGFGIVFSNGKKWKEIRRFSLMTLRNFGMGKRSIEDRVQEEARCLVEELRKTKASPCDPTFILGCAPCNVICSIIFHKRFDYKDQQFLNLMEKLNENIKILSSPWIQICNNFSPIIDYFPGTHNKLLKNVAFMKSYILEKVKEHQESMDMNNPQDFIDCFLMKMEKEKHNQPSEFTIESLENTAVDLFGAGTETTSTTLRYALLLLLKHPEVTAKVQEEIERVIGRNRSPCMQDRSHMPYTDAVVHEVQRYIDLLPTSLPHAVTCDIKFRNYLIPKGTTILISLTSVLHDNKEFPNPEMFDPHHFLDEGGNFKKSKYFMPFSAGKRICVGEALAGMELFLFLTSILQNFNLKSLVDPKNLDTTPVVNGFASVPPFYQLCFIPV
Another data set addresses CYP3A4 (Homo sapiens (Human), UniProt P08684). Put plainly: time-dependent inhibition (TDI) of CYP3A4. It counts as in vitro ADME. Particulars: for time-dependent inhibition (TDI) of the CYP3A4 enzyme: result in words.
[1] abbreviates: comparison table with Compounds A, B, C, read-out: PDE10 Ki.

Where two headings read alike, the source gives them in different places.

CYP3A4, sequence (P08684 whole entry): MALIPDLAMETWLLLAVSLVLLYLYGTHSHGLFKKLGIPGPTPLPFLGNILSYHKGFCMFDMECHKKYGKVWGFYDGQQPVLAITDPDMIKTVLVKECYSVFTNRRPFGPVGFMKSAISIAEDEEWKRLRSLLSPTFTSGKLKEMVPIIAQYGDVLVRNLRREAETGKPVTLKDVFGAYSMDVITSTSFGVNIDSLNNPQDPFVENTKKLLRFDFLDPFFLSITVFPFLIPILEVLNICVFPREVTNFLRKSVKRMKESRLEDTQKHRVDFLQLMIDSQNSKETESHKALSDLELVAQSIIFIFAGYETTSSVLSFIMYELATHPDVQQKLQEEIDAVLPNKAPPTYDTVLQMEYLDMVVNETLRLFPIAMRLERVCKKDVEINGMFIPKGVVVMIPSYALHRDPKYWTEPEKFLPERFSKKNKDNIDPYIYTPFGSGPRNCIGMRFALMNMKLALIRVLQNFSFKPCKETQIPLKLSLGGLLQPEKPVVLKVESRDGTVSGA
human PDE10A2, sequence (Q9Y233 267-1055): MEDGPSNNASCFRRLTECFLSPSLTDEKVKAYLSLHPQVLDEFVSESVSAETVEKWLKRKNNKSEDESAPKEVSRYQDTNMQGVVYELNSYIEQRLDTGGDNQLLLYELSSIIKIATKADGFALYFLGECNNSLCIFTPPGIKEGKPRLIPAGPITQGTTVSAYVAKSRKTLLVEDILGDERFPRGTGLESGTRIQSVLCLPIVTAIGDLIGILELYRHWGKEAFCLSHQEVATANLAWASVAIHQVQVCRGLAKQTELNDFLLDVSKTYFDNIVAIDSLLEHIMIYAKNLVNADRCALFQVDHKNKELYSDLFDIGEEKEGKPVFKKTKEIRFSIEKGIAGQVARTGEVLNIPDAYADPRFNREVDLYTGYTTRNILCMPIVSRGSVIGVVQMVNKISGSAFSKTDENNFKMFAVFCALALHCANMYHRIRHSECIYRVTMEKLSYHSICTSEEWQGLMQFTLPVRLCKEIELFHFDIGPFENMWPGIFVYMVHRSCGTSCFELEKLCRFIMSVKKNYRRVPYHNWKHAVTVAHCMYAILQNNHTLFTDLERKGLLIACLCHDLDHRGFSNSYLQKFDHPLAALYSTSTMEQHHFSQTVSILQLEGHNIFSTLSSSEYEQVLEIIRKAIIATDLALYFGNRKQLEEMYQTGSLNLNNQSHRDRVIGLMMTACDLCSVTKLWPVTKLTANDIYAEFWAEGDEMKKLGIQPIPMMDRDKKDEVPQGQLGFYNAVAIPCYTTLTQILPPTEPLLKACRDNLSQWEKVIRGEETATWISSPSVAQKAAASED

In the case of `Cc1nc(N2CC(c3nc4ccccc4n3C)C2)cc(-n2nc(C)nc2[C@H](C)O)n1` [Example 1, (S)-1-(3-methyl-1-(2-methyl-6-(3-(1-methyl-1H-benzo[d]imidazol-2-yl)azetidin-1-yl)pyrimidin-4-yl)-1H-1,2,4-triazol-5-yl)ethanol], at human PDE10A2 (read-out: PDE10a Ki), the Ki was found to be 0.23 nM. On CYP2C9, this compound had an IC50 greater than 50000 nM. At CYP3A4, the “TDI CYP3A4 shift ratio” value is given as 1 and the “time-dependent inhibition (TDI) of the CYP3A4 enzyme” value (“time-dependent inhibition (TDI)” below) was “do not exhibit TDI of CYP3A4”.
On to `CO[C@@H](C)c1nc(C)nn1-c1cc([C@@H]2C[C@H]2c2nc3ccccc3n2C)nc(C)n1` [Compound B, 2-((1R,2R)-2-(6-(5-((S)-1-methoxyethyl)-3-methyl-1H-1,2,4-triazol-1-yl)-2-methylpyrimidin-4-yl)cyclopropyl)-1-methyl-1H-benzo[d]imidazole, reference compound], for which, on human PDE10A2 (setting [1]), the Ki stood at 2.1 nM. Further, the IC50 at CYP2C9 came to 10500 nM. The “TDI CYP3A4 shift ratio” value on CYP3A4 stood at 1.
For the compound `Cc1nc([C@@H]2C[C@H]2c2nc3ccccc3n2C)cc(-n2nc(C)nc2[C@@H](C)O)n1` [Example 14, (R)-1-(3-methyl-1-(2-methyl-6-((1R,2R)-2-(1-methyl-1H-benzo[d]imidazol-2-yl)cyclopropyl)pyrimidin-4-yl)-1H-1,2,4-triazol-5-yl)ethanol], the Ki at human PDE10A2 (setting [1]) and on human PDE10A2 (read-out: PDE10a Ki) was 1.1 nM each time. On CYP2C9, this compound had a half-maximal inhibitory concentration (IC50) greater than 50000 nM. In addition, the “TDI CYP3A4 shift ratio” value on CYP3A4 is 1. In addition, the “time-dependent inhibition (TDI)” value at CYP3A4 is recorded as “do not exhibit TDI of CYP3A4”.
With `Cc1nc(N2CC(c3nc4ccccc4n3C)C2)cc(-n2nc(C)nc2[C@@H](C)O)n1` [Example 2, (R)-1-(3-methyl-1-(2-methyl-6-(3-(1-methyl-1H-benzo[d]imidazol-2-yl)azetidin-1-yl)pyrimidin-4-yl)-1H-1,2,4-triazol-5-yl)ethanol], the Ki at human PDE10A2 (setting [1]) came to 1.2 nM. For the same compound, the Ki at human PDE10A2 (read-out: PDE10a Ki) came to 1.2 nM. The same compound came in with an IC50 against CYP2C9 greater than 50000 nM. Also, at CYP3A4, the “TDI CYP3A4 shift ratio” value came to 1 and the “time-dependent inhibition (TDI)” value is listed as “do not exhibit TDI of CYP3A4”.
In the case of `Cc1nc([C@@H]2C[C@H]2c2nc3ccccc3n2C)cc(-n2nc(C)nc2[C@H](C)O)n1` [Example 13, (S)-1-(3-methyl-1-(2-methyl-6-((1R,2R)-2-(1-methyl-1H-benzo[d]imidazol-2-yl)cyclopropyl)pyrimidin-4-yl)-1H-1,2,4-triazol-5-yl)ethanol], at human PDE10A2 (setting [1]), the inhibition constant (Ki) was 0.74 nM. Moreover, the Ki at human PDE10A2 (read-out: PDE10a Ki) amounted to 0.74 nM. For the same compound, the IC50 on CYP2C9 is greater than 50000 nM. For the same compound, on CYP3A4, the “TDI CYP3A4 shift ratio” value stood at 1 and the “time-dependent inhibition (TDI)” value is “do not exhibit TDI of CYP3A4”.
With `CCC(O)c1nc(C)nn1-c1cc(N2CC(c3nc4ccccc4n3C)C2)nc(C)n1` (single isomer, unassigned) [Example 4b, 1-(3-methyl-1-(2-methyl-6-(3-(1-methyl-1H-benzo[d]imidazol-2-yl)azetidin-1-yl)pyrimidin-4-yl)-1H-1,2,4-triazol-5-yl)propan-1-ol], the inhibition constant (Ki) on human PDE10A2 (setting [1]) came out at 0.51 nM. Besides, at human PDE10A2 (read-out: PDE10a Ki), the inhibition constant Ki turned out to be 0.41 nM. In addition, on CYP2C9, the IC50 is greater than 50000 nM. Further, on CYP3A4, the “TDI CYP3A4 shift ratio” value was found to be 1 and the “time-dependent inhibition (TDI)” value is “do not exhibit TDI of CYP3A4”.
For `COCc1nc(C)nn1-c1cc([C@@H]2C[C@H]2c2nc3ccccc3n2C)nc(C)n1` [Compound C, 2-((1R,2R)-2-(6-(5-(methoxymethyl)-3-methyl-1H-1,2,4-triazol-1-yl)-2-methylpyrimidin-4-yl)cyclopropyl)-1-methyl-1H-benzo[d]imidazole, reference compound], at human PDE10A2 (setting [1]), the inhibition constant Ki amounted to 0.49 nM. Half-maximal inhibition against CYP2C9 (IC50) required 46000 nM. At CYP3A4, the “TDI CYP3A4 shift ratio” value is reported as greater than 1.98 and the “time-dependent inhibition (TDI)” value is given as “exhibited time-dependent inhibition (TDI) of the CYP3A4 enzyme”.
`Cc1nc(N2CC(c3nc4ccccc4n3C)C2)cc(-n2nc(C)nc2C(O)C(F)(F)F)n1` (single isomer, unassigned) [Example 3b, 2,2,2-trifluoro-1-(3-methyl-1-(2-methyl-6-(3-(1-methyl-1H-benzo[d]imidazol-2-yl)azetidin-1-yl)pyrimidin-4-yl)-1H-1,2,4-triazol-5-yl)ethanol]: the Ki at human PDE10A2 (setting [1]) and at human PDE10A2 (read-out: PDE10a Ki) was 0.06 nM in each case. Further, the IC50 at CYP2C9 was greater than 50000 nM. Also, the “TDI CYP3A4 shift ratio” value at CYP3A4 is given as 1. Also, the “time-dependent inhibition (TDI)” value on CYP3A4 was “do not exhibit TDI of CYP3A4”.
In the case of `Cc1nc(N2CC(c3nc4ccccc4n3C)C2)cc(-n2nc(C)nc2C(O)C2CC2)n1` (single isomer, unassigned) [Example 6a, cyclopropyl(3-methyl-1-(2-methyl-6-(3-(1-methyl-1H-benzo[d]imidazol-2-yl)azetidin-1-yl)pyrimidin-4-yl)-1H-1,2,4-triazol-5-yl)methanol], at human PDE10A2 (setting [1]), the Ki stood at 0.17 nM. For the same compound, at human PDE10A2 (read-out: PDE10a Ki), the inhibition constant (Ki) came to 0.17 nM. The same compound displayed an IC50 against CYP2C9 greater than 50000 nM. Besides, on CYP3A4, the “TDI CYP3A4 shift ratio” value was 1 and the “time-dependent inhibition (TDI)” value is “do not exhibit TDI of CYP3A4”.
As to `Cc1nc([C@@H]2C[C@H]2c2nc3ccccc3n2C)cc(-n2nc(C)nc2C(C)(C)O)n1` [Compound A, 2-(3-methyl-1-(2-methyl-6-((1R,2R)-2-(1-methyl-1H-benzo[d]imidazol-2-yl)cyclopropyl)pyrimidin-4-yl)-1H-1,2,4-triazol-5-yl)propan-2-ol, reference compound], the Ki at human PDE10A2 (setting [1]) worked out at 4.2 nM. On CYP2C9, this compound gave an IC50 greater than 50000 nM. Also, at CYP3A4, the “TDI CYP3A4 shift ratio” value was 1.
